From US20260124146A1, “MODIFIED RELEASE TOLCAPONE FORMULATIONS” (Corino Therapeutics, Inc., priority 2022, published 2026)
Values after ≈ are worked out from the molar mass of the structure shown. Where two headings read alike, the source gives them in different places.

Assays:
[1] = safety evaluation in the Phase I study; assay type: in vivo, human; conditions: single oral doses, healthy subjects
Source text: Treatment-emergent adverse events (TEAEs), serious adverse events (SAEs), vital signs, ECG measurements (triplicate), physical examination, standard laboratory evaluations.

[2] = test system: TTR; conditions: cited from earlier work
[3] = solubility assessment of micronized tolcapone in buffers (HPLC assay and visual observation); assay type: physicochemical; conditions: for solubility at 1 h / solubility at 2 h: buffer, thermodynamic from solid
Description: Two aliquots of each sample were taken at 1 and 2 hour time points. One aliquot was used for Assay and Related Substances analysis by reverse phase HPLC and the other aliquot was used to obtain microscopic images using 5.5× magnification, polarised and non-polarised light. In addition, representative photograph of each n=1 sample at 1 hour time point were taken for information. pH of each sample was measured at 2 hour time point.

solubility (in words) ([3]; acidic conditions): poorly soluble | solubility (in words) ([3]; at about pH 6.8): improved solubility | solubility at 1 h ([3]; pH 2, aqueous buffer, pH 2.0, 1 Hour, replicates N=1, N=2, read-out: Assay (solubility by HPLC)): 0.023 mg/mL (≈ 84.2 µM) | solubility at 1 h ([3]; pH 2, aqueous buffer, pH 2.0, 1 Hour, read-out: Mean Assay (solubility by HPLC)): 0.02 mg/mL (≈ 73.2 µM) | solubility at 2 h ([3]; pH 2, aqueous buffer, pH 2.0, 2 Hour, replicates N=1, N=2, read-out: Assay (solubility by HPLC)): 0.02 mg/mL (≈ 73.2 µM) | solubility at 2 h ([3]; pH 2, aqueous buffer, pH 2.0, 2 Hour, read-out: Mean Assay (solubility by HPLC)): 0.021 mg/mL (≈ 76.9 µM) | solubility at 1 h ([3]; pH 4.5, aqueous buffer, pH 4.5, 1 Hour, replicates N=1, N=2, read-out: Assay (solubility by HPLC)): 0.045 mg/mL (≈ 165 µM) | solubility at 1 h ([3]; pH 4.5, aqueous buffer, pH 4.5, 1 Hour, read-out: Mean Assay (solubility by HPLC)): 0.045 mg/mL (≈ 165 µM) | solubility at 2 h ([3]; pH 4.5, aqueous buffer, pH 4.5, 2 Hour, replicates N=1, N=2, read-out: Assay (solubility by HPLC)): 0.052 mg/mL (≈ 190 µM) | solubility at 2 h ([3]; pH 4.5, aqueous buffer, pH 4.5, 2 Hour, read-out: Mean Assay (solubility by HPLC)): 0.051 mg/mL (≈ 187 µM) | solubility at 1 h ([3]; pH 5.5, aqueous buffer, pH 5.5, 1 Hour, replicates N=1, N=2, read-out: Assay (solubility by HPLC)): 0.258 mg/mL (≈ 944 µM) | solubility at 1 h ([3]; pH 5.5, aqueous buffer, pH 5.5, 1 Hour, read-out: Mean Assay (solubility by HPLC)): 0.248 mg/mL (≈ 908 µM) | solubility at 2 h ([3]; pH 5.5, aqueous buffer, pH 5.5, 2 Hour, replicates N=1, N=2, read-out: Assay (solubility by HPLC)): 0.283 mg/mL (≈ 1040 µM) | solubility at 2 h ([3]; pH 5.5, aqueous buffer, pH 5.5, 2 Hour, read-out: Mean Assay (solubility by HPLC)): 0.275 mg/mL (≈ 1010 µM) | solubility at 1 h ([3]; pH 6.8, aqueous buffer, pH 6.8, 1 Hour, replicates N=1, N=2, read-out: Assay (solubility by HPLC)): 0.92 mg/mL (≈ 3370 µM) | solubility at 1 h ([3]; pH 6.8, aqueous buffer, pH 6.8, 1 Hour, read-out: Mean Assay (solubility by HPLC)): 1.28 mg/mL (≈ 4690 µM) | solubility at 2 h ([3]; pH 6.8, aqueous buffer, pH 6.8, 2 Hour, replicates N=1, N=2, read-out: Assay (solubility by HPLC)): 0.905 mg/mL (≈ 3310 µM) | solubility at 2 h ([3]; pH 6.8, aqueous buffer, pH 6.8, 2 Hour, read-out: Mean Assay (solubility by HPLC)): 1.03 mg/mL (≈ 3780 µM) | solubility at 1 h ([3]; pH 7.4, aqueous buffer, pH 7.4, 1 Hour, replicates N=1, N=2, read-out: Assay (solubility by HPLC)): 0.473 mg/mL (≈ 1730 µM) | solubility at 1 h ([3]; pH 7.4, aqueous buffer, pH 7.4, 1 Hour, read-out: Mean Assay (solubility by HPLC)): 0.463 mg/mL (≈ 1690 µM) | solubility at 2 h ([3]; pH 7.4, aqueous buffer, pH 7.4, 2 Hour, replicates N=1, N=2, read-out: Assay (solubility by HPLC)): 0.489 mg/mL (≈ 1790 µM) | solubility at 2 h ([3]; pH 7.4, aqueous buffer, pH 7.4, 2 Hour, read-out: Mean Assay (solubility by HPLC)): 0.501 mg/mL (≈ 1830 µM) | Assay (solubility by HPLC) ([3]; pH 2.0, 1 Hour, replicates N=1, N=2): 0.018 mg/mL | Assay (solubility by HPLC) ([3]; pH 2.0, 2 Hour, replicates N=1, N=2): 0.023 mg/mL | Assay (solubility by HPLC) ([3]; pH 4.5, 2 Hour, replicates N=1, N=2): 0.051 mg/mL | Assay (solubility by HPLC) ([3]; pH 5.5, 1 Hour, replicates N=1, N=2): 0.237 mg/mL | Assay (solubility by HPLC) ([3]; pH 5.5, 2 Hour, replicates N=1, N=2): 0.267 mg/mL | Assay (solubility by HPLC) ([3]; pH 6.8, 1 Hour, replicates N=1, N=2): 1.644 mg/mL | Assay (solubility by HPLC) ([3]; pH 6.8, 2 Hour, replicates N=1, N=2): 1.163 mg/mL | Assay (solubility by HPLC) ([3]; pH 7.4, 1 Hour, replicates N=1, N=2): 0.452 mg/mL | Assay (solubility by HPLC) ([3]; pH 7.4, 2 Hour, replicates N=1, N=2): 0.513 mg/mL
SMILES: Cc1ccc(C(=O)c2cc(O)c(O)c([N+](=O)[O-])c2)cc1 [tolcapone]
safety and tolerability [1]: safe and well tolerated | overall mean increase in plasma TTR tetramer concentration ([2]; 100 mg three times daily 14 days then 200 mg three times daily 14 days, oral, hATTR-leptomeningeal patients, plasma): 55% | mean decrease of monomeric TTR concentration in CSF ([2]; same regimen, CSF, measured under semi-denaturing conditions): 48%
